Results taken from ChEMBL document CHEMBL3588800, “Novel Bioactive Hybrid Compound Dual Targeting Estrogen Receptor and Histone Deacetylase for the Treatment of Breast Cancer” (J Med Chem, 2015).
pEC50, pIC50, pKi: −log10 of the molar value.

Key:
Vero = experiment: cells; assay type: ADME, cell-based; conditions: Chlorocebus sabaeus, 72 h
Estrogen receptor [1] = target: T1, Estrogen receptor (Homo sapiens, UniProt P03372); experiment: Binding affinity to human ER-alpha ligand binding domain after 2 hrs by competitive fluorometric binding assay
T1 sequence (P03372 whole entry): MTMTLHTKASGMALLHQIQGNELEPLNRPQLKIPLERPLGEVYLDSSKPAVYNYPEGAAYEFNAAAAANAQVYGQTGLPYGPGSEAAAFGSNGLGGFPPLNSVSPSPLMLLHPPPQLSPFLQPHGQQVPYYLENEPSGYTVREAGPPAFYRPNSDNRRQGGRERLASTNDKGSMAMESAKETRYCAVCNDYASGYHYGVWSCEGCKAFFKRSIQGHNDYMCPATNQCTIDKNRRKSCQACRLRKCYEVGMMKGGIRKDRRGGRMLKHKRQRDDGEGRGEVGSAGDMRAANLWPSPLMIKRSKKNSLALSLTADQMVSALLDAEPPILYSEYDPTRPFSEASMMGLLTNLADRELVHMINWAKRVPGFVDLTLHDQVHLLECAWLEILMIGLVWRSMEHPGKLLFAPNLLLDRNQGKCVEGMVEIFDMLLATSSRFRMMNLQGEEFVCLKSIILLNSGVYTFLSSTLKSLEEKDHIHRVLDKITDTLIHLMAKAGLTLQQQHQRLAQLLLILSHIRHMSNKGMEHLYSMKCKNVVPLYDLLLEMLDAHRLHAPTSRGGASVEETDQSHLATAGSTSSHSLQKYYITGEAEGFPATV

[2] = target: T2, Protein deacetylase HDAC6 (Homo sapiens, UniProt Q9UBN7); experiment: Inhibition of human recombinant HDAC6 after 15 mins by fluorogenic assay; conditions: read-out: IC50
T2 sequence (Q9UBN7 whole entry): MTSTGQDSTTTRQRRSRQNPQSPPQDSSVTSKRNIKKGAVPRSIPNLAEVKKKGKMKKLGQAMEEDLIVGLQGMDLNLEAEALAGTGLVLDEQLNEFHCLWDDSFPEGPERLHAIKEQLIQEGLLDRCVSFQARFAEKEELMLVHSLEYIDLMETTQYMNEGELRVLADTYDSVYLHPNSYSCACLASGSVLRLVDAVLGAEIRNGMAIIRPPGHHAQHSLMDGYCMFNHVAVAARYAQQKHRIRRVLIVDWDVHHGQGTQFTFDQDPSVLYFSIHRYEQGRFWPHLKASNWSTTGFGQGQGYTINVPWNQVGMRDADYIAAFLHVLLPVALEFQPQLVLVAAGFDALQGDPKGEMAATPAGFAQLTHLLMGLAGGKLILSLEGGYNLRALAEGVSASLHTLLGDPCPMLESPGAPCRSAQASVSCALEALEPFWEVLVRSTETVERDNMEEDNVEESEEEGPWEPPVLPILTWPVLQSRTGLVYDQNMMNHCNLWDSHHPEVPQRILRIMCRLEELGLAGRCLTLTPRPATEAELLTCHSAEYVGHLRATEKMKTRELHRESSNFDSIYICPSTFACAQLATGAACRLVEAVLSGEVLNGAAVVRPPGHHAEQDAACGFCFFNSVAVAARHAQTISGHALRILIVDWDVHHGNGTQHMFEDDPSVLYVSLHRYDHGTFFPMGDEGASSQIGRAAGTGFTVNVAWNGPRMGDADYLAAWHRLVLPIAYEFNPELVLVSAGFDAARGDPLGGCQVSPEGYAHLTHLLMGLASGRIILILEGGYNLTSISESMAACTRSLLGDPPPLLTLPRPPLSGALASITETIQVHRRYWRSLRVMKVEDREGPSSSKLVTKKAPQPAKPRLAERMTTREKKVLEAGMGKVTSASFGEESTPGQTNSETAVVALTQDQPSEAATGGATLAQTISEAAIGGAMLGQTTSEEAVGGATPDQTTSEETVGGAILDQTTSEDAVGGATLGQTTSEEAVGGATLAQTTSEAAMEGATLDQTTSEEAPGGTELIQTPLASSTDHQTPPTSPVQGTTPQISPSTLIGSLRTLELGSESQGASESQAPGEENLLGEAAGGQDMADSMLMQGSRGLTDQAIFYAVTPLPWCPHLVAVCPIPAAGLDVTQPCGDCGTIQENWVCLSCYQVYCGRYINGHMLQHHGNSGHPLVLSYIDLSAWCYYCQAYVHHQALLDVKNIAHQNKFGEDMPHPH

DU-145 = experiment: cells; assay type: functional, cell-based; conditions: Homo sapiens, DU-145, 72 h
[3] = Therapeutic index, ratio of IC50 for african green monkey Vero cells to IC50 for human MCF7 cells
MCF7 = experiment: cells; assay type: functional, cell-based; conditions: Homo sapiens, MCF7, 72 h
Estrogen receptor beta [4] = target: T3, Estrogen receptor beta (Homo sapiens, UniProt Q92731); experiment: Agonist activity at ER-beta (unknown origin) transfected in HEK293T cells assessed as stimulation of transcriptional activity after 24 hrs by luciferase reporter gene assay; assay type: cell-based, HEK-293T
Estrogen receptor beta [5] = target: T3, Estrogen receptor beta; experiment: Antagonist activity at ER-beta (unknown origin) transfected in HEK293T cells assessed as inhibition of transcriptional activity after 24 hrs by luciferase reporter gene assay relative to 17-beta estradiol; assay type: cell-based; conditions: HEK-293T
Estrogen receptor beta [6] = target: T3, Estrogen receptor beta; experiment: Agonist activity at ER-beta (unknown origin) transfected in HEK293T cells assessed as stimulation of transcriptional activity after 24 hrs by luciferase reporter gene assay relative to 17-beta estradiol; assay type: cell-based; conditions: HEK-293T
[7] = target: T4, Estrogen receptor (Homo sapiens) (UniProt P03372); experiment: Agonist activity at ER-alpha (unknown origin) transfected in HEK293T cells assessed as stimulation of transcriptional activity after 24 hrs by luciferase reporter gene assay relative to 17-beta estradiol; assay type: cell-based; conditions: HEK-293T
T4 sequence (whole entry): T1 sequence (P03372 whole entry)

Histone deacetylase 1 = Histone deacetylase 1 (Homo sapiens, UniProt Q13547); experiment: Inhibition of human recombinant HDAC1 after 15 mins by fluorogenic assay; conditions: read-out: IC50
Estrogen receptor [8] = target: T1, Estrogen receptor; experiment: Agonist activity at ER-alpha (unknown origin) transfected in HEK293T cells assessed as stimulation of transcriptional activity after 24 hrs by luciferase reporter gene assay; assay type: cell-based, HEK-293T
Estrogen receptor beta [9] = target: T3, Estrogen receptor beta; experiment: Binding affinity to human ER-beta ligand binding domain after 2 hrs by competitive fluorometric binding assay
[10] = target: T4, Estrogen receptor (Homo sapiens); experiment: Antagonist activity at ER-alpha (unknown origin) transfected in HEK293T cells assessed as inhibition of transcriptional activity after 24 hrs by luciferase reporter gene assay relative to 17-beta estradiol; assay type: cell-based; conditions: HEK-293T
Estrogen receptor [11] = target: T1, Estrogen receptor; experiment: Antagonist activity at ER-alpha (unknown origin) transfected in HEK293T cells assessed as inhibition of transcriptional activity after 24 hrs by luciferase reporter gene assay; assay type: cell-based, HEK-293T
Estrogen receptor beta [12] = target: T3, Estrogen receptor beta; experiment: Antagonist activity at ER-beta (unknown origin) transfected in HEK293T cells assessed as inhibition of transcriptional activity after 24 hrs by luciferase reporter gene assay; assay type: cell-based, HEK-293T

T3 sequence (Q92731 whole entry): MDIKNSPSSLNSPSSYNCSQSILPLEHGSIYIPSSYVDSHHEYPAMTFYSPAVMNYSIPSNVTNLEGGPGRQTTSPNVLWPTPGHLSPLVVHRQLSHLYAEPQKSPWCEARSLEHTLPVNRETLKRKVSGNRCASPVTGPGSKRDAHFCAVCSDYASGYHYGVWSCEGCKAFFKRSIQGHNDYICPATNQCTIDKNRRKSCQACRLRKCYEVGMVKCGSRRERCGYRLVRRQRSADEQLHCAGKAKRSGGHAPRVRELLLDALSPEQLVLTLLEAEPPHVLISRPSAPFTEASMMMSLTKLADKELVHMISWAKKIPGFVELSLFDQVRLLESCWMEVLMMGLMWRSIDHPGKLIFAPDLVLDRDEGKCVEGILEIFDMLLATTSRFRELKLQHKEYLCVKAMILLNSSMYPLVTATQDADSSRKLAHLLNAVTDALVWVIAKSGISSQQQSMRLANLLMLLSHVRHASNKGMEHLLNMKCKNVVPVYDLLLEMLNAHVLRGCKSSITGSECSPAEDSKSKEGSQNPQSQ
Chain of Histone deacetylase 1 (Q13547 whole entry): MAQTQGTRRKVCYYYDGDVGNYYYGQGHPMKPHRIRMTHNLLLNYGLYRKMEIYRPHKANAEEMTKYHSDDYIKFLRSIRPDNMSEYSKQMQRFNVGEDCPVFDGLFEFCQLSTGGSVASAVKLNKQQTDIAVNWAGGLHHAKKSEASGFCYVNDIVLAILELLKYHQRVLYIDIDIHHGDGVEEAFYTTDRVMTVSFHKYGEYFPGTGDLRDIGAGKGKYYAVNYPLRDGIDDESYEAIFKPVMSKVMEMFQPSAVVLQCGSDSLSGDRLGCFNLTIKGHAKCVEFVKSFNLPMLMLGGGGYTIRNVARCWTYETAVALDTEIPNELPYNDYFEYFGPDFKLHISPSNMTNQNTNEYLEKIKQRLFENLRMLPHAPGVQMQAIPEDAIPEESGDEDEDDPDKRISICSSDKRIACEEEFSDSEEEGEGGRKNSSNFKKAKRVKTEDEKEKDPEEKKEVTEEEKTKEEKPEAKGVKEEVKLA

Compound | pIC50 (Vero) | pKi (Estrogen receptor [1]) | pIC50 [2] | pIC50 (DU-145) | selectivity ratio [3] | pIC50 (MCF7) | pEC50 (Estrogen receptor beta [4]) | Efficacy (Estrogen receptor beta [5]) | Efficacy (Estrogen receptor beta [6]) | Efficacy [7] | pIC50 (Histone deacetylase 1) | pEC50 (Estrogen receptor [8]) | pKi (Estrogen receptor beta [9]) | Efficacy [10] | pIC50 (Estrogen receptor [11]) | pIC50 (Estrogen receptor beta [12])
O=C(O)CCCCCCC(=O)Nc1ccc(C2=C(c3ccc(O)cc3)C3CC(S(=O)(=O)Oc4ccc(Cl)cc4)C2O3)cc1 (racemic) | < 4.00 | 6.90 | 5.84 | < 4.00 | > 30.3 | 5.48 | 6.24 | 188% | 44% | 149% | 6.62 | 6.10 | 6.70 | 93% | – | –
COC(=O)CCCCCCC(=O)Nc1ccc(OS(=O)(=O)C2CC3OC2C(c2ccc(O)cc2)=C3c2ccc(O)cc2)cc1 (stereo not drawn) | < 4.00 | 7.22 | 5.80 | 4.69 | > 12.3 | 5.09 | – | 76% | 4% | -35% | 6.27 | – | 6.12 | 10% | 4.97 | 6.48
